These results are taken from ChEMBL document CHEMBL6177991, “Discovery of P11-2: A Potent First-in-Class MNK1-Targeting PROTAC Degrader for the Treatment of Cancer” (J Med Chem, 2025).

Data set [1] has as its system MV4-11. The data set is described as follows: Anti-proliferative activity against human MV4-11 cells measured after 72 hrs by CCK8 assay. Particulars: MV4-11, 72 h.
A further data set deals with MOLM-13. In words: Anti-proliferative activity against human MOLM-13 cells measured after 72 hrs by CCK8 assay. Conditions: MOLM-13, 72 h.
In the next data set the test system is MDA-MB-231. In words: Anti-proliferative activity against human MDA-MB-231 cells measured after 96 hrs by CCK8 assay. Conditions: MDA-MB-231, 96 h.
Another data set relates to MM1.S. The data set is described as follows: Anti-proliferative activity against human MM1.S cells measured after 120 hrs by CCK8 assay.
For data set [2], the target named is MAP kinase-interacting serine/threonine-protein kinase 1 (Homo sapiens, UniProt Q9BUB5). The data set is described as follows: Inhibition of recombinant MNK1 (unknown origin) using TATKSGSTTKNR peptide as substrate preincubated for 5 mins followed by ATP addition and measured after 40 mins by ADP-Glo kinase assay.
MAP kinase-interacting serine/threonine-protein kinase 1, sequence (Q9BUB5 whole entry): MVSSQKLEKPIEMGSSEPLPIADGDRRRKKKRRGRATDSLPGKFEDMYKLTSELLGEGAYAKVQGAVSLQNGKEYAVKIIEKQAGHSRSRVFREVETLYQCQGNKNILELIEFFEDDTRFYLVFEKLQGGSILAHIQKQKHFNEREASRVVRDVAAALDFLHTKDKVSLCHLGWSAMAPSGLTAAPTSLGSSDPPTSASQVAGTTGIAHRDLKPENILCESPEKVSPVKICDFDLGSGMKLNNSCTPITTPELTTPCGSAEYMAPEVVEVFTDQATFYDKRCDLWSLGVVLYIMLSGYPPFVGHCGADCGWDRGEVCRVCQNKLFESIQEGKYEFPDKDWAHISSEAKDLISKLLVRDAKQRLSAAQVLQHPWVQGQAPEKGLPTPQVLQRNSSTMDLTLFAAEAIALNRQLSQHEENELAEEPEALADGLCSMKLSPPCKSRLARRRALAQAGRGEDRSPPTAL
For data set [3], the system named is MV4-11. In words: Induction of MNK2 degradation in human MV4-11 cells at 300 to 1000 nM incubated for 24 hrs by immunoblot analysis. Particulars: dose 300-1000 nM. It is filed as cell-based.
Data set [4] has as its system MV4-11. The data set is described as follows: Induction of apoptosis in human MV4-11 cells assessed as viable cells at 300 nM incubated for 24 hrs by Annexin V-FITC/PI dual staining based flow cytometric analysis (reference value: 94.9 %). In kind it is functional. Particulars: read-out: Activity.
Data set [5] relates to MV4-11. The data set is described as follows: Induction of apoptosis in human MV4-11 cells assessed as early apoptotic cells at 300 nM incubated for 24 hrs by Annexin V-FITC/PI dual staining based flow cytometric analysis (reference value: 3.42 %). It is filed as functional.
Data set [6] relates to MV4-11. In words: Induction of apoptosis in human MV4-11 cells assessed as late apoptotic cells at 300 nM incubated for 24 hrs by Annexin V-FITC/PI dual staining based flow cytometric analysis (reference value: 1.48 %). In kind it is functional.
In data set [7] the test system is MV4-11. In words: Induction of apoptosis in human MV4-11 cells assessed as necrotic cells at 300 nM incubated for 24 hrs by Annexin V-FITC/PI dual staining based flow cytometric analysis (reference value: 0.16 %). It is filed as functional.
Data set [8] deals with MV4-11. In words: Antitumor activity against human MV4-11 cells xenografted in nude female NSG mouse assessed as tumor growth inhibition at 20 mg/kg, ip qd administrated for 16 days by caliper method relative to control. In kind it is functional. Conditions: MV4-11, 384 h, time 16 day, read-out: TGI.
Data set [9] can be described thus: Toxicity in nude female NSG mouse xenografted with human MV4-11 cells assessed as change in body weight at 20 mg/kg, ip qd administrated for 16 days. It is filed as organism-based. Particulars: in vivo, 384 h, time 16 day.

Activity calls are given as the source filed them. The rule behind the calls is not given here.

Take `O=C1CCC(N2Cc3c(NC(=O)CCCCN4CCC(C(=O)Nc5ncc(-c6ccccc6)s5)CC4)cccc3C2=O)C(=O)N1` (stereo not drawn): half-maximal inhibition in the data set on MV4-11 [1] (IC50) was put at 3.36 µM.
For `O=C1CCC(N2C(=O)c3cc(F)c(N4CCN(C(=O)CCC(=O)N5CCC(C(=O)Nc6ncc(-c7ccccc7)s6)CC5)CC4)cc3C2=O)C(=O)N1` (stereo not drawn), in the data set with MV4-11 [1], half-maximal inhibition (IC50) was put at 5.13 µM.
Same read-out and setting: the same measure for `O=C(CC(=O)N1CCC(C(=O)Nc2ncc(-c3ccccc3)s2)CC1)NCCCCCC(=O)Nc1cccc2c1CN(C1CCC(=O)NC1=O)C2=O` (stereo not drawn): 7.1 µM; for `O=C1CCC(N2C(=O)c3cc(F)c(N4CCN(C(=O)CCCCCN5CCC(C(=O)Nc6ncc(-c7ccccc7)s6)CC5)CC4)cc3C2=O)C(=O)N1` (stereo not drawn): above 10 µM.
With `O=C1CCC(N2Cc3c(NC(=O)CCCCCCC(=O)N4CCC(C(=O)Nc5ncc(-c6ccccc6)s5)CC4)cccc3C2=O)C(=O)N1` (stereo not drawn), the IC50 in the data set on MV4-11 [1] stood at 0.21 µM; with MOLM-13, 1.95 µM; in the data set on MDA-MB-231 it was 5.74 µM; in the data set on MM1.S, 0.41 µM.
In the data set on MV4-11 [1], `O=C(CC(=O)N1CCC(C(=O)Nc2ncc(-c3ccccc3)s2)CC1)NCCOCC(=O)Nc1cccc2c1CN(C1CCC(=O)NC1=O)C2=O` (stereo not drawn) displayed a concentration for half-maximal inhibition (IC50) above 10 µM.
Regarding `O=C1CCC(N2Cc3c(NC(=O)CCCCCCCN4CCC(C(=O)Nc5ncc(-c6ccccc6)s5)CC4)cccc3C2=O)C(=O)N1` (stereo not drawn), the IC50 in the data set on MV4-11 [1] was above 10 µM.
For the compound `O=C1CCC(N2C(=O)c3cc(F)c(N4CCN(C(=O)CCCCCCC(=O)N5CCC(C(=O)Nc6ncc(-c7ccccc7)s6)CC5)CC4)cc3C2=O)C(=O)N1` (stereo not drawn), the IC50 with MV4-11 [1] was 2.28 µM; in the data set with MOLM-13 it was 10 µM; with MDA-MB-231 it was above 20 µM; in the data set with MM1.S, 3.84 µM.
With `O=C1CCC(N2Cc3c(NC(=O)CCc4ccc(OCCCCC(=O)N5CCC(C(=O)Nc6ncc(-c7ccccc7)s6)CC5)cc4)cccc3C2=O)C(=O)N1` (stereo not drawn), in the data set on MV4-11 [1], the IC50 was above 10 µM.
Same read-out and setting: then `O=C1CCC(N2C(=O)c3cc(F)c(N4CCN(C(=O)CCCCN5CCC(C(=O)Nc6ncc(-c7ccccc7)s6)CC5)CC4)cc3C2=O)C(=O)N1` (stereo not drawn), with 7.9 µM; and `O=C1CCC(N2C(=O)c3cc(F)c(N4CCN(C(=O)CCCCC(=O)N5CCC(C(=O)Nc6ncc(-c7ccccc7)s6)CC5)CC4)cc3C2=O)C(=O)N1` (stereo not drawn), with above 10 µM; and `O=C(CC(=O)N1CCC(C(=O)Nc2ncc(-c3ccccc3)s2)CC1)NCCCCCCCC(=O)Nc1cccc2c1CN(C1CCC(=O)NC1=O)C2=O` (stereo not drawn), with 5.41 µM.
In the case of `O=C(CC(=O)N1CCC(C(=O)Nc2ncc(-c3ccccc3)s2)CC1)NCCCCCCC(=O)Nc1cccc2c1CN(C1CCC(=O)NC1=O)C2=O` (stereo not drawn), the IC50 in the data set on MV4-11 [1] worked out at 0.86 µM; with MOLM-13 it was 6.96 µM; in the data set on MDA-MB-231, 17.6 µM; in the data set on MM1.S, 1.91 µM.
In the same order, the values of `O=C1CCC(N2Cc3c(NC(=O)CCCCOc4ccc(CC(=O)N5CCC(C(=O)Nc6ncc(-c7ccccc7)s6)CC5)cc4)cccc3C2=O)C(=O)N1` (stereo not drawn) are 1.44 µM, 9.52 µM, above 20 µM and 2.43 µM.
As for `O=C1CCC(N2Cc3c(NC(=O)CCCCCN4CCC(C(=O)Nc5ncc(-c6ccccc6)s5)CC4)cccc3C2=O)C(=O)N1` (stereo not drawn), the IC50 in the data set with MV4-11 [1] was 0.9 µM; with MOLM-13 it was 11.5 µM; in the data set with MDA-MB-231, 12.2 µM; with MM1.S, 1.22 µM.
In turn, `O=C1CCC(N2Cc3c(NC(=O)CCCOc4ccc(CCC(=O)N5CCC(C(=O)Nc6ncc(-c7ccccc7)s6)CC5)cc4)cccc3C2=O)C(=O)N1` (stereo not drawn) had a 50% inhibitory concentration (IC50) with MV4-11 [1] of 8.58 µM.
In the case of `O=C1CCC(N2Cc3c(NC(=O)CCCCCCN4CCC(C(=O)Nc5ncc(-c6ccccc6)s5)CC4)cccc3C2=O)C(=O)N1` (stereo not drawn), the IC50 with MV4-11 [1] stood at 4.89 µM.
In the data set on MV4-11 [1], `O=C(CCC(=O)N1CCC(C(=O)Nc2ncc(-c3ccccc3)s2)CC1)NCCCCCC(=O)Nc1cccc2c1CN(C1CCC(=O)NC1=O)C2=O` (stereo not drawn) returned an IC50 above 10 µM.
In the data set with MV4-11 [1], `O=C1CCC(N2C(=O)c3cc(F)c(N4CCN(C(=O)CCCCCC(=O)N5CCC(C(=O)Nc6ncc(-c7ccccc7)s6)CC5)CC4)cc3C2=O)C(=O)N1` (stereo not drawn) returned an IC50 of 4.08 µM.
Same read-out and setting: then `O=C1CCC(N2Cc3c(NC(=O)CCCCC(=O)N4CCC(C(=O)Nc5ncc(-c6ccccc6)s5)CC4)cccc3C2=O)C(=O)N1` (stereo not drawn), with 2.17 µM.
With `O=C1CCC(N2Cc3c(NC(=O)CCc4ccc(OCCCC(=O)N5CCC(C(=O)Nc6ncc(-c7ccccc7)s6)CC5)cc4)cccc3C2=O)C(=O)N1` (stereo not drawn), in the data set with MV4-11 [1], the IC50 was above 10 µM.
With `CN1CCC(C(=O)Nc2ncc(-c3ccccc3)s2)CC1`, the IC50 in data set [2] is 0.387 µM; with MV4-11 [1] it was 3.32 µM; with MOLM-13 it was 12.1 µM; with MDA-MB-231 it was above 20 µM; with MM1.S, 5.32 µM. Also, the outcome in the data set with MV4-11 [3] was inactive. The viability at 0.3 µM in the data set on MV4-11 [4] came to 86.2%. The Activity in the data set with MV4-11 [5] is listed as 9.59%; with MV4-11 [6], 3.75%; in the data set with MV4-11 [7] it was 0.49%; in data set [9] it was “Non-toxic”. For the same compound, the inhibition in vivo at 20 mg/kg in the data set with MV4-11 [8] amounted to 28%.
As to `O=C1CCC(N2Cc3c(NC(=O)CCCCOc4ccc(CCC(=O)N5CCC(C(=O)Nc6ncc(-c7ccccc7)s6)CC5)cc4)cccc3C2=O)C(=O)N1` (stereo not drawn), the IC50 with MV4-11 [1] is 9.89 µM.
`O=C1CCC(N2Cc3c(NC(=O)CCCCCCCC(=O)N4CCC(C(=O)Nc5ncc(-c6ccccc6)s5)CC4)cccc3C2=O)C(=O)N1` (stereo not drawn) gave an IC50 with MV4-11 [1] of 4.59 µM.
`CN1C(=O)CCC(N2Cc3c(NC(=O)CCCCCC(=O)N4CCC(C(=O)Nc5ncc(-c6ccccc6)s5)CC4)cccc3C2=O)C1=O` (stereo not drawn) returned an IC50 with MV4-11 [1] above 10 µM.
The compound `O=C1CCC(N2C(=O)c3cc(F)c(N4CCN(C(=O)CCCN5CCC(C(=O)Nc6ncc(-c7ccccc7)s6)CC5)CC4)cc3C2=O)C(=O)N1` (stereo not drawn) showed a concentration for half-maximal inhibition (IC50) in the data set with MV4-11 [1] of 8.47 µM.
Consider `O=C1CCC(N2C(=O)c3cc(F)c(N4CCN(C(=O)CCCC(=O)N5CCC(C(=O)Nc6ncc(-c7ccccc7)s6)CC5)CC4)cc3C2=O)C(=O)N1` (stereo not drawn), for which the values for the IC50 (in [2]; in the data set on MV4-11 [1]) were 0.64 µM and 8.98 µM, respectively.
For `O=C1CCC(N2Cc3c(NC(=O)CCCCCCCCC(=O)N4CCC(C(=O)Nc5ncc(-c6ccccc6)s5)CC4)cccc3C2=O)C(=O)N1` (stereo not drawn), the IC50 in the data set on MV4-11 [1] stood at 5.21 µM.
Turning to `O=C1CCC(N2C(=O)c3cc(F)c(N4CCN(C(=O)CC(=O)N5CCC(C(=O)Nc6ncc(-c7ccccc7)s6)CC5)CC4)cc3C2=O)C(=O)N1` (stereo not drawn), the IC50 with MV4-11 [1] is above 10 µM.
On the same count and under the same terms, the same measure for `O=C1CCC(N2Cc3c(NC(=O)CCCOc4ccc(CC(=O)N5CCC(C(=O)Nc6ncc(-c7ccccc7)s6)CC5)cc4)cccc3C2=O)C(=O)N1` (stereo not drawn): 6.38 µM; for `O=C(CC(=O)N1CCC(C(=O)Nc2ncc(-c3ccccc3)s2)CC1)NCCCCC(=O)Nc1cccc2c1CN(C1CCC(=O)NC1=O)C2=O` (stereo not drawn): 6.17 µM.
